From paper doi:10.1101/2023.04.18.537371v1 (bioRxiv, 2023)
Peptide text beside a SMILES is read from it.

Columns and labels:
[1] = In vitro protein binding, rapid equilibrium dialysis; type: in vitro ADME; conditions: beagle, dog, plasma
[2] = as above; type: in vitro ADME; conditions: cynomolgus monkey, plasma
[3] = In vitro blood to plasma partitioning; type: in vitro ADME, dog
[4] = system: cynomolgus monkey hepatocytes; assay: Hepatocyte stability; type: in vitro ADME; conditions: 1.00 μM
human hepatocytes [5] = assay: Hepatocyte stability; type: in vitro ADME; conditions: 1.00 μM
mouse hepatocytes = assay: Metabolite identification in hepatocytes; type: in vitro ADME; conditions: cryopreserved mouse hepatocytes, FC-12738 10 μM, 37 °C, 240 min, LC-UV-MS
rat hepatocytes = assay: Metabolite identification in hepatocytes; type: in vitro ADME; conditions: cryopreserved rat hepatocytes, FC-12738 10 μM, 37 °C, 240 min, LC-UV-MS
human hepatocytes [6] = assay: Metabolite identification in hepatocytes; type: in vitro ADME; conditions: cryopreserved human hepatocytes, FC-12738 10 μM, 37 °C, 240 min, LC-UV-MS
[7] = Metabolism of FC-12738 in SD rat plasma; type: in vivo
CYP2B6 = target: T1, CYP2B6 (Homo sapiens, UniProt P20813); assay: biochemical; type: in vitro ADME
T1 sequence (P20813 1-491): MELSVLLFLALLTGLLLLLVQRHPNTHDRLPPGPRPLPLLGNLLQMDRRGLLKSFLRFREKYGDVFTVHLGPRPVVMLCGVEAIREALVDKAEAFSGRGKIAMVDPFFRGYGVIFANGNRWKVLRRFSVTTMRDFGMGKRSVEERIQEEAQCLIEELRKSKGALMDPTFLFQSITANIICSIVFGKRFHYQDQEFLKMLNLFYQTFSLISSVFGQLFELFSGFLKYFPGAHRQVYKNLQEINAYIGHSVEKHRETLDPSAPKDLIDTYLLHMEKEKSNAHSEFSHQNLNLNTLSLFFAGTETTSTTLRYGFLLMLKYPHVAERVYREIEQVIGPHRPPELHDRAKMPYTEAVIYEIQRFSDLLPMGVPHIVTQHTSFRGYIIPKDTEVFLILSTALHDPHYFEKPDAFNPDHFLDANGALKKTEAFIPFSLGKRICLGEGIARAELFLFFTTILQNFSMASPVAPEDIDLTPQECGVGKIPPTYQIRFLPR

CYP2C9 = CYP2C9 (Homo sapiens, UniProt P11712); assay: CYP450 inhibition assay; type: in vitro ADME
CYP1A2 = target: T2, CYP1A2 (Homo sapiens, UniProt P05177); assay: biochemical; type: in vitro ADME
T2 sequence (P05177 1-516): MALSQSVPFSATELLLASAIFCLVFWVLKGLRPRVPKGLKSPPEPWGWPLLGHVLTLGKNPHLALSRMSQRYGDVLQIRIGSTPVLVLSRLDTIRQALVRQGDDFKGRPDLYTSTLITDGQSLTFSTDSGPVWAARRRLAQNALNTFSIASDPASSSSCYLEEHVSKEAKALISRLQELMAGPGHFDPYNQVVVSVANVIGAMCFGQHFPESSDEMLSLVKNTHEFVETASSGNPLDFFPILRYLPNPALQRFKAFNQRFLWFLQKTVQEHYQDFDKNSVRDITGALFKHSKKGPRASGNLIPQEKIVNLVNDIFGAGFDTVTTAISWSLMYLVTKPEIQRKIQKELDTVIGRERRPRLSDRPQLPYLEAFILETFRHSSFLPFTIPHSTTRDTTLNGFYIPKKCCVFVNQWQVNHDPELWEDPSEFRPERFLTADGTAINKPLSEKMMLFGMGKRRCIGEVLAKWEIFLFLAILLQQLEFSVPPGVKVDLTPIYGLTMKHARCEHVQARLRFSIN

CYP2C19 = CYP2C19 (Homo sapiens, UniProt P33261); assay: CYP time-dependent inhibition assay; type: in vitro ADME
CYP3A4 = assay: CYP induction assay in human hepatocytes; type: in vitro ADME; conditions: cryopreserved human hepatocytes, three donors, 0.100 to 15.0 μM, 48 h, 37°C
OAT3 = OAT3 (Homo sapiens, UniProt Q8TCC7); assay: Transporter inhibition in HEK293 cells; type: in vitro ADME
[8] = cutoff IC50 shift >= 1.5-fold, 30 min pre-incubation ± NADPH

Chain of CYP2C19 (P33261 whole entry): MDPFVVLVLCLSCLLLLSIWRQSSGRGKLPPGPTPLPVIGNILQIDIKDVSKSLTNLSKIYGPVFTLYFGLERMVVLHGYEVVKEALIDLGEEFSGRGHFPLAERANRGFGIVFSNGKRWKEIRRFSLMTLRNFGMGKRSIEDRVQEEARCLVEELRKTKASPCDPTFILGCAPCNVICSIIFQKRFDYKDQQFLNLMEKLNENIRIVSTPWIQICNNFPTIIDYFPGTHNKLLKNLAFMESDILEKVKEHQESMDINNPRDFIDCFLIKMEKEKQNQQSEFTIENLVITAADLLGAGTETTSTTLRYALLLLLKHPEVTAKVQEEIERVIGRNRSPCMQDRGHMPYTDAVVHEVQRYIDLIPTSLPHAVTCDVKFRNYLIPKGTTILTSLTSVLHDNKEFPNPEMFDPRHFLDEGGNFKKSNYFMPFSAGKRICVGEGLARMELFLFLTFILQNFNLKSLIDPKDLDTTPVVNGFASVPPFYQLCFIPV
Chain of OAT3 (Q8TCC7 whole entry): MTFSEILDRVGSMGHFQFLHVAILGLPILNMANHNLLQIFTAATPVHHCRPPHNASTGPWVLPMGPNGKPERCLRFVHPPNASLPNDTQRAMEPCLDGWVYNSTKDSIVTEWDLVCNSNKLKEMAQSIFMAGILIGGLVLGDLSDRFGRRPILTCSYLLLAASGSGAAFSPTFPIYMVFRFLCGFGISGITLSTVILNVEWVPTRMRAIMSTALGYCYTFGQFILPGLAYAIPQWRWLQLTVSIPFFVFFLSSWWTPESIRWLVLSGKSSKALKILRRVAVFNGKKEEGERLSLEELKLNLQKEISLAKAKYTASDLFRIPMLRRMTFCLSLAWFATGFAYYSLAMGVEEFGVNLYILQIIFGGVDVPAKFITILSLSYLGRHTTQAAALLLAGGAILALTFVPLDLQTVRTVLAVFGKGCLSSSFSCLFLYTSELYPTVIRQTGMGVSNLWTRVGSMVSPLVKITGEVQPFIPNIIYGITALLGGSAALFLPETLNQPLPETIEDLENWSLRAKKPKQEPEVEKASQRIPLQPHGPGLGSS
Chain of CYP2C9 (P11712 whole entry): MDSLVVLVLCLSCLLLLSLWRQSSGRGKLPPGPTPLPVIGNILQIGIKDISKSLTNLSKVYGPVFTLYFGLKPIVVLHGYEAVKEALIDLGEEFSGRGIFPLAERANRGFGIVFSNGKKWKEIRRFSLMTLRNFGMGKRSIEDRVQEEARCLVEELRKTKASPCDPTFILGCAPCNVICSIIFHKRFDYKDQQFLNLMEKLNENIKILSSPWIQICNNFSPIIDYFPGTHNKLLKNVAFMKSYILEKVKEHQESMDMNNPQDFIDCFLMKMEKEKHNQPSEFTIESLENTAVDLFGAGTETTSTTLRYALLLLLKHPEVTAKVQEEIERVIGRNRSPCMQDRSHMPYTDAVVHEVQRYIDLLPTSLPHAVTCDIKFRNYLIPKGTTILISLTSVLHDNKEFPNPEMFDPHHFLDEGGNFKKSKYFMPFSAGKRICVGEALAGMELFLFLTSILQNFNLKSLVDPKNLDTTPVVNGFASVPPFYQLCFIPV

Compound: CC(C)[C@@H](NC(=O)[C@H](N)Cc1ccc(O)cc1)C(=O)N[C@H](CC(=O)O)C(=O)N[C@H](CCCCN)C(=O)N[C@H](CCCNC(=N)N)C(=O)O [FC-12738, (D-Tyr)-(D-Val)-(D-Asp)-(D-Lys)-(D-Arg)] (HELM PEPTIDE1{[dY].[dV].[dD].[dK].[dR]}$$$$V2.0)
- fraction unbound at 6 h, 0.2 µM [1]: 0.492
- fraction unbound at 6 h, 2 µM [1]: 0.461
- fraction unbound at 6 h, 10 µM [1]: 0.691
- fraction unbound at 6 h, 0.2 µM [2]: 0.538
- fraction unbound at 6 h, 10 µM [2]: 0.736
- Mean erythrocyte to plasma ratio KE/P ([3]; dog whole blood, 0.200 μM, 37°C, 60 min): < 0.18
- Mean erythrocyte to plasma ratio KE/P ([3]; dog whole blood, 2.00 μM, 37°C, 60 min): 0.07
- Mean erythrocyte to plasma ratio KE/P ([3]; dog whole blood, 10.0 μM, 37°C, 60 min): < 0.14
- Mean blood-to-plasma ratio KB/P ([3]; dog whole blood, 10.0 μM, 37°C, 60 min, LC-MS/MS): 0.58
- tissue to tissue ratio at 1 h, 0.2 µM ([3]; dog, whole blood): 0.57
- tissue to tissue ratio at 1 h, 2 µM ([3]; dog, whole blood): 0.55
- intrinsic clearance CLint(hep) ([4]; cryopreserved cynomolgus monkey hepatocytes, 37.0°C, 120 min): < 1.9 μL/min/10^6 cells
- half-life ([4]; cryopreserved cynomolgus monkey hepatocytes, 37.0°C, 120 min, LC-MS/MS): > 6.212 h
- hepatic clearance CLint(liver) ([4]; scaled from cynomolgus monkey hepatocytes): < 6.7 mL/min/kg
- intrinsic clearance CLint(hep) (human hepatocytes [5]; cryopreserved human hepatocytes, 37.0°C, 120 min): < 1.9 μL/min/10^6 cells
- half-life (human hepatocytes [5]; cryopreserved human hepatocytes, 37.0°C, 120 min, LC-MS/MS): > 6.212 h
- hepatic clearance CLint(liver) (human hepatocytes [5]; scaled from human hepatocytes): < 5.2 mL/min/kg
- Relative Abundance (UV%) (mouse hepatocytes): 88.92%
- Relative Abundance (UV%) (rat hepatocytes): 87.56%
- Relative Abundance (UV%) (human hepatocytes [6]): 91.82%
- Relative MS abundance (%Total) ([7]; male SD rat plasma 0-2 h, IV 2 mg/kg FC-12738 single): 97.10%
- Relative MS abundance (%Total) ([7]; male SD rat plasma 0-4 h, SC 10 mg/kg FC-12738 single): 96.57%
- IC50 (CYP2B6): > 100 µM
- IC50 (CYP2C9): > 100 µM
- IC50 (CYP1A2): > 100 µM
- Time-dependent inhibition of CYP1A2 (CYP1A2; [8]): no time-dependent inhibition
- IC50 (CYP2C19): > 100 µM
- Time-dependent inhibition of CYP2C19 (CYP2C19; [8]): no time-dependent inhibition
- Induction of CYP3A4 (enzyme activity and gene expression) (CYP3A4): not considered as an inducer
- IC50 (OAT3): > 100 µM
